In PubChem BioAssay AID624491 (Broad Institute, 2012):

Each compound was assayed on D54 ERlucT glycosylation luciferase reporter, luminescence, 24 h (assay: blockers of NLG process in reporter cells – D54 ERlucT cells, luminescence, cherry-picks, dose response (AID 624491);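 note: signal gain reflects blocked N-linked glycosylation of a luciferase reporter; actives raise luciferase signal so AC26 marks activators of the reporter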).

For `COc1ccc(Nc2nc3cc(-c4sccc4C)sc3c(=O)n2C)cc1OC`, which AC26 is on record?
The AC26 was 477 nM.

For `Cc1ccc2c(c1)C(=O)N1[C@H]3c4cc(C)ccc4OC[C@@H]3[C@H](c3ccccc3)[C@]1(C)C(=O)N2`, which AC26 is on record?
Its AC26 is 26.4 nM.

How did the AC26 turn out when `Nc1ccc(-c2cc(NC=O)c3ncc(-c4cccc(C(F)(F)F)c4)n3c2)cn1` was run?
Its AC26 is 3430 nM.

For `Cc1nnc2c(NC(C)C)nc3ccccc3n12`, which AC26 is on record?
The AC26 was 4090 nM.

How did the AC26 turn out when `Cc1ccc2oc(C(=O)NCc3ncc(C)[nH]3)c(C)c2c1` was run?
The AC26 was 6750 nM.

With `COc1ccc2c(c1)[C@H]1[C@H](CO2)[C@H](c2ccccc2)[C@]2(C)C(=O)Nc3ccc(Br)cc3C(=O)N12` as the compound, how does the AC26 read?
The AC26 was 188 nM.

Which AC26 does the source give for `COc1cc(NC(=O)c2noc(C)c2[N+](=O)[O-])c(OC)cc1Cl` here?
Its AC26 is 632 nM.

Which AC26 does the source give for `CCn1c2ccccc2c2cc(NC(=O)COC(=O)Cc3cn4ccsc4n3)ccc21` here?
The AC26 was 1790 nM.

How did the AC26 turn out when `CN(C)c1ccc(C(C[N+](=O)[O-])c2c(N)n(C)c(=O)n(C)c2=O)c(F)c1C#N` (centres undefined) was run?
Its AC26 is 3300 nM.

With `O=C(/C=C/c1ccco1)Nc1nnc(-c2ccco2)s1` as the compound, how does the AC26 read?
The AC26 was 310 nM.

For `O=C(/C=C/c1ccccc1)c1ccccc1`, which AC26 is on record?
The AC26 was 6780 nM.

With `Cc1cc(C)c2nc3nc(C)c(C)cc3c(N)c2c1` as the compound, how does the AC26 read?
The AC26 was 998 nM.

For `Cc1nc(N=C(N)N)nc2c(C)cccc12`, which AC26 is on record?
The AC26 was 2200 nM.

Which AC26 does the source give for `O=C1/C(=C\c2ccc(Cl)cc2)CCC1CNc1ccc(Cl)cc1` (centres undefined) here?
The AC26 was 5490 nM.

With `Cc1cccc(C(=O)Oc2ccccc2/C=N/NC(=O)c2ccc(NC(=O)C(C)(C)C)cc2)c1` as the compound, how does the AC26 read?
The AC26 was 1550 nM.

Which AC26 does the source give for `CC(C)(C)S(=O)(=O)N1C[C@@H]2CC/C=C\C/C(c3ccccc3)=C\2[C@H]1CCO` here?
The AC26 was 1050 nM.

With `Cc1nn(-c2ccccc2)c(Cl)c1/C=C/C(=O)c1ccc(O)cc1` as the compound, how does the AC26 read?
The AC26 was 5020 nM.

For `CC1CN(C(=O)c2ccc(COc3ccc(C(C)C)cc3)o2)CC(C)O1` (centres undefined), which AC26 is on record?
Its AC26 is 3780 nM.

For `C#CC[N+](C)(C)CCCCCCCCCCCC`, which AC26 is on record?
Its AC26 is 7360 nM.

For `COc1ccc(/C=N/NC(=O)c2ccccc2OCc2ccccc2)c(OC)c1`, which AC26 is on record?
Its AC26 is 1400 nM.

Which AC26 does the source give for `O=C(/C=C/c1cccc(Br)c1)c1ccc2c(c1)OCO2` here?
The AC26 was 7470 nM.

How did the AC26 turn out when `COc1ccccc1NS(=O)(=O)c1ccc(-c2cc(C)no2)s1` was run?
Its AC26 is 5830 nM.

For `COc1ccc(OC)c(Nc2ncnc3c2cnn3-c2cccc(C)c2)c1`, which AC26 is on record?
Its AC26 is 3240 nM.

How did the AC26 turn out when `Cc1ccc(S/C=C\C(=O)c2ccccc2)cc1` was run?
The AC26 was 3170 nM.

Which AC26 does the source give for `COc1ccc(-c2nc(C(N)=O)c3[nH]c(=O)n(-c4cccc(Cl)c4)c3n2)cc1OC` here?
The AC26 was 5880 nM.

Which AC26 does the source give for `CCc1ccc(N2C(=O)NC(=O)/C(=C\C=C\c3ccco3)C2=O)cc1` here?
Its AC26 is 1280 nM.

Which AC26 does the source give for `COc1ccc(Nc2cc(C)nc(-n3nc(C)cc3C)n2)cc1` here?
The AC26 was 193 nM.

How did the AC26 turn out when `Cc1ccc(-c2cc(C(=O)N3CC(C)OC(C)C3)c3ccccc3n2)o1` (centres undefined) was run?
The AC26 was 4280 nM.

`CC(C)(C)S(=O)(=O)N1C[C@H]2CC/C=C\C/C(c3ccccc3)=C\2[C@@H]1CCO` was tested. Which AC26 did it give?
The AC26 was 1030 nM.

With `NC(=O)CC(NC(=O)c1ccc(Br)cc1)c1ccc(NC2CCCCC2)c([N+](=O)[O-])c1` (centres undefined) as the compound, how does the AC26 read?
Its AC26 is 6020 nM.

How did the AC26 turn out when `COc1ccc(C2C(C(=O)Nc3cc(OC)c(OC)c(OC)c3)c3ccccc3C(=O)N2C)cc1` (centres undefined) was run?
The AC26 was 5180 nM.

With `COc1ccc(S(=O)Cc2ccc(C(=O)N3CCN(c4cccc(C)c4C)CC3)o2)cc1` (centres undefined) as the compound, how does the AC26 read?
The AC26 was 1430 nM.

`O=C(NCc1ccc(F)c(F)c1)C1Cc2c(-c3ccc4c(c3)OCO4)ccnc2O1` (centres undefined) was tested. Which AC26 did it give?
Its AC26 is 2750 nM.

For `CCN(CC)c1ccc(/C=N/n2nnnc2N)c(O)c1`, which AC26 is on record?
The AC26 was 3410 nM.

Which AC26 does the source give for `COc1ccc2c(c1)c(C(=O)N/N=C/c1ccc(Br)cc1)c(C)n2C` here?
Its AC26 is 17100 nM.

How did the AC26 turn out when `COc1ccccc1CCC(=O)Nc1ccc2c(c1)c(=O)n(C)n2-c1cccs1` was run?
The AC26 was 124 nM.

Which AC26 does the source give for `CCn1c2ccccc2c2cc(NC(=O)c3cc(OC)c(OC)c(OC)c3)ccc21` here?
Its AC26 is 605 nM.

`Fc1ccc(CSc2ccc3nnc(-c4cccnc4)n3n2)cc1` was tested. Which AC26 did it give?
The AC26 was 403 nM.

How did the AC26 turn out when `COc1cc2c(cc1OC)C(=O)N1[C@H]3c4ccccc4OC[C@@H]3[C@H](c3ccccc3)[C@]1(C)C(=O)N2` was run?
The AC26 was 42.6 nM.

Which AC26 does the source give for `CNC(=O)c1cccn(Cc2ccc(C(F)(F)F)cc2)c1=O` here?
The AC26 was 3370 nM.

For `NC(=O)CC(NC(=O)Cc1ccc(Br)cc1)c1ccc(NCC2CC2)c([N+](=O)[O-])c1` (centres undefined), which AC26 is on record?
Its AC26 is 6670 nM.

With `O=C1Cc2c([nH]c3ccc([N+](=O)[O-])cc23)-c2ccccc2N1` as the compound, how does the AC26 read?
Its AC26 is 318 nM.

`COC(=O)COc1cccc2c(=O)n(CC(=O)NCc3ccccc3)ccc12` was tested. Which AC26 did it give?
Its AC26 is 1250 nM.

Which AC26 does the source give for `COc1ccccc1NC1=NC(c2ccc(Cl)cc2)N=C(N)N1` (centres undefined) here?
The AC26 was 1370 nM.

`CC(Nc1nc(-c2ccccc2O)nc2ccccc12)c1ccccc1` (centres undefined) was tested. Which AC26 did it give?
Its AC26 is 65.6 nM.

With `C[C@@]12C(=O)Nc3cc(Cl)ccc3C(=O)N1[C@H]1c3ccccc3OC[C@@H]1[C@@H]2c1ccccc1` as the compound, how does the AC26 read?
The AC26 was 397 nM.

`COc1ccc(OC)c(S(=O)(=O)Nc2ccc3c(c2)n(C)c(=O)n3C)c1` was tested. Which AC26 did it give?
The AC26 was 3320 nM.

`Cc1ccc2c(c1)[C@H]1[C@H](CO2)[C@H](c2ccccc2)[C@]2(C)C(=O)Nc3ccc(Br)cc3C(=O)N12` was tested. Which AC26 did it give?
Its AC26 is 1430 nM.

`CC(=O)N1CCc2c(sc(NC(=O)c3ccc4c(c3)OCCO4)c2C#N)C1` was tested. Which AC26 did it give?
The AC26 was 1950 nM.

Which AC26 does the source give for `Nc1c(N(CCC2=CCCCC2)C(=O)COc2ccc(F)cc2Cl)c(=O)[nH]c(=O)n1Cc1ccccc1` here?
Its AC26 is 1070 nM.

With `O=C(NC1CCCCCC1)c1c2c(nc3ccccc13)CCN(Cc1ccccc1)C2` as the compound, how does the AC26 read?
The AC26 was 5800 nM.

`CC(C)OCC(O)CN1CCN(CCN2C(=O)c3cccc4cccc(c34)C2=O)CC1` (centres undefined) was tested. Which AC26 did it give?
The AC26 was 7110 nM.

Which AC26 does the source give for `CC(=O)n1cc(/C=N/NC(=O)c2sc(C)nc2C)c2ccccc21` here?
The AC26 was 10000 nM.

`COc1ccc(/C=N\NC(=O)c2sccc2C)cc1Cn1nc(C)cc1C` was tested. Which AC26 did it give?
The AC26 was 507 nM.
